According to patent US8507475B2, “Substituted heteroarylamide diazepinopyrimidone derivatives” (Sanofi, priority 2008, dated 2013):
Counter-ions that a name gives are not always drawn.

Assays:
[1] = molecular target: GSK3β (Homo sapiens, UniProt P49841); experiment: Inhibitory activity against GSK3β (33P-ATP phosphorylation of prephosphorylated GS1 peptide); type: biochemical; conditions: protocol 4: commercial GSK3beta (Millipore), 7.5 μM GS1 peptide, 10 μM ATP, 50 mM Hepes pH 7.2, 90 minutes at room temperature
Chain of GSK3β (P49841 whole entry): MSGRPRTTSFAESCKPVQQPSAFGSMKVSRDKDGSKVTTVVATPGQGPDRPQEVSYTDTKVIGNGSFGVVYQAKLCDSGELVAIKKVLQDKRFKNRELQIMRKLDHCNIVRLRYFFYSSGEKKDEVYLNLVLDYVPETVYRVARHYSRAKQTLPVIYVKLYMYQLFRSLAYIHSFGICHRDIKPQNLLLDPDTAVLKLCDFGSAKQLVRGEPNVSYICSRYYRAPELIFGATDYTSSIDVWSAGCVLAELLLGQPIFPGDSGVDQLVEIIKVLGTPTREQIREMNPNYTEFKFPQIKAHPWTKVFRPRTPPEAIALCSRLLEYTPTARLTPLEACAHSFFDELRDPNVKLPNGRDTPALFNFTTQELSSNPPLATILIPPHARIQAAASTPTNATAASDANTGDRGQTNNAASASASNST
Method: Four different protocols can be used. In a first protocol: 7.5 μM of prephosphorylated GS1 peptide and 10 μM ATP (containing 300,000 cpm of ^33P-ATP) were incubated in 25 mM Tris-HCl, pH 7.5, 0.6 mM DTT, 6 mM MgCl2, 0.6 mM EGTA, 0.05 mg/ml BSA buffer for 1 hour at room temperature in the presence of GSK3beta (total reaction volume: 100 microliters). In a second protocol: 4.1 μM of prephosphorylated GS1 peptide and 42 μM ATP (containing 260,000 cpm ^33P-ATP) were incubated in 80 mM Mes-NaOH, pH 6.5, 1 mM Mg acetate, 0.5 mM EGTA, 5 mM 2-mercaptoethanol, 0.02% Tween 20, 10% glycerol buffer for 2 hours at room temperature in the presence of GSK3beta. In a third protocol: 7.5 μM of prephosphorylated GS1 peptide and 10 μM ATP (containing 300,000 cpm of ^33P-ATP) were incubated in 50 mM Hepes, pH 7.2, 1 mM DTT, 1 mM MgCl2, 1 mM EGTA, 0.01% Tween 20 buffer for one hour at room temperature in the presence of GSK3beta (total reaction volume: 100 microliters). In a fourth protocol: 7.5 μM of prephosphorylated GS1 peptide and 10 μM ATP (containing 300,000 cpm of ^33P-ATP) were incubated in 50 mM Hepes, pH 7.2, 1 mM DTT, 1 mM MgCl2, 1 mM EGTA, 0.01% Tween 20 buffer for 90 minutes at room temperature in the presence of commercial GSK3beta (Millipore) (total reaction volume: 100 microliters). Inhibitors were solubilised in DMSO (final solvent concentration in the reaction medium, 1%). The reaction was stopped with 100 microliters of a solution made of 25 g polyphosphoric acid (85% P2O5), 126 ml 85% H3PO4, H2O to 500 ml and then diluted to 1:100 before use. An aliquot of the reaction mixture was then transferred to Whatman P81 cation exchange filters and rinsed with the solution described above. Incorporated ^33P radioactivity was determined by liquid scintillation spectrometry. The phosphorylated GS-1 peptide had the following sequence: NH2-[…](P)EDEE-COOH. (Woodgett, J. R. (1989) Analytical Biochemistry 180, 237-241.

melting point [°C] | IC50 [1] [nM] | SMILES
232 to 234 | – | O=C(NC1CNCCn2c1nc(-c1ccncc1)cc2=O)c1cc(F)cc2c1OCOC2 (racemic) (as salt: HCl) [Compound No. 26, (+/−)-6-Fluoro-4H-benzo[1,3]dioxine-8-carboxylic acid (4-oxo-2-pyridin-4-yl-4,5,6,7,8,9-hexahydro-1,4a,7-triaza-benzocyclohepten-9-yl)-amide]
284 to 286 | 73 | CCOC(=O)N1CCn2c(nc(-c3ccncn3)cc2=O)C(NC(=O)c2ccc3ncccc3n2)C1 (racemic) [Compound No. 1, (+/−)-9-[([1,5]Naphthyridine-2-carbonyl)-amino]-4-oxo-2-pyrimidin-4-yl-5,6,8,9-tetrahydro-4H-1,4a,7-triaza-benzocycloheptene-7-carboxylic acid ethyl ester]
– | 12 | O=C(NC1CNCCn2c1nc(-c1ccncc1)cc2=O)c1cc(F)cc2c1OCOC2 (racemic) [Compound No. 26, (+/−)-6-Fluoro-4H-benzo[1,3]dioxine-8-carboxylic acid (4-oxo-2-pyridin-4-yl-4,5,6,7,8,9-hexahydro-1,4a,7-triaza-benzocyclohepten-9-yl)-amide]
284 to 286 | 109 | CCOC(=O)N1CCn2c(nc(-c3ccncc3)cc2=O)C(NC(=O)c2cccc3c2OCC3)C1 (racemic) [compound 8, (+/−)-9-[(2,3-Dihydro-benzofuran-7-carbonyl)-amino]-4-oxo-2-pyridin-4-yl-5,6,8,9-tetrahydro-4H-1,4-a,7-thaza-benzocycloheptene-7-carboxylic acid ethyl ester]
169 to 171 | 47 | CN1CCn2c(nc(-c3ccncn3)cc2=O)C(NC(=O)c2cc(Cl)c(N)c3c2OCCO3)C1 (racemic) [compound 22, (+/−)-8-Amino-7-chloro-2,3-dihydro-benzo[1,4]dioxine-5-carboxylic acid (7-methyl-4-oxo-2-pyrimidin-4-yl-4,5,6,7,8,9-hexahydro-1,4a,7-triaza-benzocyclohepten-9-yl)-amide]
